Patent publication US20240343717A1, “MICROBIOCIDAL PYRAZOLE DERIVATIVES” (SYNGENTA CROP PROTECTION AG, priority 2021, published 2024)

Legend:
[1] = tested on: Mycosphaerella graminicola (Septoria tritici); assay: Mycosphaerella graminicola (Septoria tritici) / liquid culture (Septoria blotch); format: cell-based; conditions: Zymoseptoria tritici, growth inhibition photometrically 4-5 days after application, read-out: control of Mycosphaerella graminicola
Method in brief: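 Conidia suspended in potato dextrose broth and added to test compound supplied in DMSO in 96-well plates. Incubated at 24 °C, and growth inhibition read photometrically 4-5 days after application.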

Pyrenophora teres = Pyrenophora teres / barley / leaf disc preventative (net blotch); format: in vivo; conditions: foliar, barley leaf segments, inoculated 2 days after application
Method in brief: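 Barley cv. Hasso leaf segments on agar sprayed with formulated compound, inoculated with spores 2 days later. Incubated at 20 °C, 65% rh, 12 h light/dark; disease control versus untreated assessed 5–7 days after application.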

[2] = tested on: Blumeria graminis f. sp. tritici (Erysiphe graminis f. sp. tritici); assay: Blumeria graminis f. sp. tritici / wheat / leaf disc preventative (powdery mildew on wheat); format: in vivo; conditions: foliar, wheat leaf segments, inoculated 1 day after application
Method in brief: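 Wheat cv. Kanzler leaf segments on agar sprayed with formulated compound in water, inoculated 1 day later by shaking mildew-infected plants overhead. Incubated at 20° C, 60% rh, 24 h dark then 12 h light/12 h dark. Percent disease control versus untreated scored 6-8 days after application.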

[3] = tested on: Glomerella lagenarium (Colletotrichum lagenarium); assay: Glomerella lagenarium (Colletotrichum lagenarium) / liquid culture (anthracnose); format: cell-based; conditions: Colletotrichum orbiculare, growth inhibition photometrically 3-4 days after application, read-out: control of Glomerella lagenarium
Method in brief: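 Cryo-stored conidia in potato dextrose broth were added to test compound in DMSO. Plates were incubated at 24° C, and growth inhibition was read photometrically 3-4 days after application.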

[4] = tested on: Mycosphaerella arachidis (Cercospora arachidicola); assay: Mycosphaerella arachidis (Cercospora arachidicola) / liquid culture (early leaf spot); format: cell-based; conditions: growth inhibition photometrically 4-5 days after application, read-out: control of Mycosphaerella arachidis
Method in brief: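 Spores taken straight from cryostorage are suspended in potato dextrose broth and added to test compound in DMSO. Plates are incubated at 24° C. Growth inhibition is scored photometrically 4-5 days after application.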

Fusarium culmorum = assay: microbe, parasite or virus in culture; format: cell-based; conditions: read-out: control of Fusarium culmorum
[5] = tested on: Botryotinia fuckeliana (Botrytis cinerea); assay: Botryotinia fuckeliana (Botrytis cinerea) / liquid culture (gray mould); format: cell-based; conditions: growth inhibition photometrically 3-4 days after application, read-out: control of Botryotinia fuckeliana
Method in brief: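 Conidia suspended in Vogels broth and added to compound dispensed from DMSO. Incubated at 24°C, with growth inhibition measured photometrically 3–4 days later.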

[6] = tested on: Monographella nivalis (Microdochium nivale); assay: Monographella nivalis (Microdochium nivale) / liquid culture (foot rot cereals); format: cell-based; conditions: growth inhibition photometrically 4-5 days after application, read-out: control of Monographella nivalis
Method in brief: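 Fungal conidia mixed directly into potato dextrose broth and added to test compound delivered in DMSO. Incubated at 24° C; growth inhibition read photometrically 4-5 days after application.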

[7] = tested on: Phaeosphaeria nodorum (Septoria nodorum); assay: Phaeosphaeria nodorum (Septoria nodorum) / wheat / leaf disc preventative (glume blotch); format: in vivo; conditions: Parastagonospora nodorum, foliar, wheat leaf segments, inoculated 2 days after application
Method: Example B8: Phaeosphaeria nodorum (Septoria nodorum)/Wheat/Leaf Disc Preventative (Glume Blotch) Wheat leaf segments cv. Kanzler are placed on agar in a multiwell plate (24-well format) and sprayed with the formulated test compound diluted in water. The leaf disks are inoculated with a spore suspension of the fungus 2 days after application. The inoculated test leaf disks are incubated at 20° C. and 75% rh under a light regime of 12 h light/12 h darkness in a climate cabinet and the activity of a compound is assessed as percent disease control compared to untreated when an appropriate level of disease damage appears in untreated check leaf disks (5-7 days after application).

| Structure (SMILES) | inhibition of growth at 20 ppm [1] | melting point | pest or weed control at 200 ppm (Pyrenophora teres) | pest or weed control at 200 ppm [2] | inhibition of growth at 20 ppm [3] | inhibition of growth at 20 ppm [4] | inhibition of growth at 20 ppm (Fusarium culmorum) | inhibition of growth at 20 ppm [5] | inhibition of growth at 20 ppm [6] | pest or weed control at 200 ppm [7] |
| --- | --- | --- | --- | --- | --- | --- | --- | --- | --- | --- |
| Cn1cc(C(C)(CNC(=O)c2cc(-c3ccc(F)cc3F)on2)c2cc(C#N)ccn2)cn1 (stereo not shown) [Compound P-63, N-[2-(4-cyano-2-pyridyl)-2-(1-methylpyrazol-4-yl)propyl]-5-(2,4-difluorophenyl) isoxazole-3-carboxamide] | ≥ 80% | 156 to 158 °C | ≥ 80% | – | – | – | – | – | – | – |
| Cc1cc(-c2cc(C(=O)NCC(C)(c3cnn(C)c3)c3cccc(Cl)n3)no2)n(C)n1 (stereo not shown) [Compound P-85, N-[2-(6-chloro-2-pyridyl)-2-(1-methylpyrazol-4-yl)propyl]-5-(2,5-dimethylpyrazol-3-yl)isoxazole-3-carboxamide] | ≥ 80% | 182 to 184 °C | ≥ 80% | ≥ 80% | ≥ 80% | – | – | – | – | – |
| Cn1ncc(C(CNC(=O)c2nnc(-c3ccc(F)cc3F)s2)c2cccc(Cl)n2)c1Cl (stereo not shown) [Compound P-116, N-[2-(5-chloro-1-methyl-pyrazol-4-yl)-2-(6-chloro-2-pyridyl)ethyl]-5-(2,4-difluorophenyl)-1,3,4-thiadiazole-2-carboxamide] | ≥ 80% | 150 to 151 °C | – | – | ≥ 80% | ≥ 80% | ≥ 80% | ≥ 80% | ≥ 80% | – |
| Cn1ncc(C(CNC(=O)c2cc(-c3ccc(F)cc3F)on2)c2cccc(Cl)n2)c1Cl (stereo not shown) [Compound P-69, N-[2-(5-chloro-1-methyl-pyrazol-4-yl)-2-(6-chloro-2-pyridyl)ethyl]-5-(2,4-difluorophenyl) isoxazole-3-carboxamide] | ≥ 80% | 113 to 115 °C | ≥ 80% | ≥ 80% | ≥ 80% | ≥ 80% | – | ≥ 80% | ≥ 80% | ≥ 80% |
| Cn1cc(C(C)(CNC(=O)c2nnc(-c3ccc(F)cc3F)s2)c2cccc(C#N)n2)cn1 (stereo not shown) [Compound P-115, N-[2-(6-cyano-2-pyridyl)-2-(1-methylpyrazol-4-yl)propyl]-5-(2,4-difluorophenyl)-1,3,4-thiadiazole-2-carboxamide] | ≥ 80% | 169 to 170 °C | – | – | ≥ 80% | ≥ 80% | ≥ 80% | ≥ 80% | ≥ 80% | – |
| Cn1cc(C(C)(CNC(=O)c2cc(-c3cccn3C)on2)c2cccc(Cl)n2)cn1 (stereo not shown) [Compound P-81, N-[2-(6-chloro-2-pyridyl)-2-(1-methylpyrazol-4-yl)propyl]-5-(1-methylpyrrol-2-yl)isoxazole-3-carboxamide] | ≥ 80% | 111 to 113 °C | – | – | ≥ 80% | ≥ 80% | – | ≥ 80% | ≥ 80% | – |
